{"source": "patent US20250368639A1", "about": "“SOLID FORMS OF A COMPOUND FOR TREATING OR PREVENTING HYPERURICEMIA OR GOUT” (ATOM THERAPEUTICS CO., LTD, priority 2022, published 2025)", "key": {"[1]": {"assay": "Dynamic vapor sorption/desorption (DVS)", "format": "physicochemical", "protocol": "Moisture sorption/desorption data were collected on a SMS DVS intrinsic Vapor Sorption Analyzer under a nitrogen purge. The DVS experiment generally includes a moisture sorption step and a moisture desorption step. […] In other words, the sample is considered to have reached an equilibrium between moisture sorption and desorption under the relative humidity when dm/dt≤0.01%. The sample was maintained at the temperature of 25° C. with relative humidity varied from 0% to 95%, and back to 0% at an increment of 5% RH each step."}, "[2]": {"assay": "Single-dose pharmacokinetic study, oral and intravenous, in SD rats", "format": "in vivo, SD rat", "conditions": "for AUC(0-t) / Cmax / MRT last / AUC(0-inf) / clearance / half-life / Vd / Vd/F: male, SD, rat, plasma; for AUC(0-inf): read-out: AUCINF—pred; for clearance: read-out: Cl—pred (converted); for half-life: read-out: HL_Lambda_z (T1/2) (converted); for Vd: read-out: Vz—pred; for Vd/F: read-out: Vz—F—pred", "protocol": "Form 1, Form 2, and Form 5D were each evaluated via a single-dose pharmacokinetic study following oral and intravenous administration in SD rats. […] Form 1, Form 2, and Form 5Dwere evaluated by rat pharmacokinetics study.\nMale SD rat was purchased from Shanghai Sippr B&K Laboratory Animals Co., Ltd. The weight was 180 g˜200 g.\n20% HP-β-CD was prepared from dissolving20 g of HP-β-CD (from Sigma) in 100 mL purified water. 0.5% CMC-Na was prepared from dissolving 1 g of CMC-Na (from Aladdin) in 200 mL purified water. The solutions were stored at 2-8 degree.\n(§1) Group 1:4.95 mg (equivalent to 4.50 mg of anhydrous free base) of Form 1 was weighed out into a 20 ml bottle, and totally dissolved by 0.225 mL DMSO by sonication. After that, 4.275 mL of 20% HP-β-CD was added, mixed well by sonication. Finally, the pH value was adjusted to 7.0 by sodium hydroxide solution. The clear solution was obtained, and the concentration was 1 mg/mL.\nGroup 2:10.08 mg (equivalent to 9.164 mg of anhydrous free base) of Form 1 was weighed out into a 20 ml bottle, and then 9.164 mL of 0.5% CMC-Na was added. A white suspension was formed after sonicated by ultrasonic cell disruptor, and the concentration was 1 mg/mL.\nGroup 3:9.47 mg of Form 2 was weighed out into a 20 ml bottle, and then 9.470 mL of 0.5% CMC-Na was added. After sonicated, it was mixed well by homogenizer for 2 minutes. Finally, a white suspension was formed, and the concentration was 1 mg/mL.\nGroup 4:9.80 mg (equivalent to 8.909 mg of free base) of Form 5Dwas weighed out into a 20 mL bottle, and then 8.909 mL of 0.5% CMC-Na was added. After sonicated, it was mixed well by homogenizer for 2 minutes. Finally, a white suspension was formed, and the concentration was 1 mg/mL.\nas §1, with “Group 5:1.94” for “Group 1:4.95”, “to 1.763” for “to 4.50”, “by 0.088” for “by 0.225”, “that, 1.675” for “that, 4.275”, “was 0.2” for “was 1”\nThe dose of intravenous administration was 1 mg/kg and 5 mg/kg, respectively. The oral dose was 10 mg/kg. Animals were fasted overnight before drug administration. After the drug administration, the rats were fed at the 4 hours.\nAbout 150˜200 μL of blood was collected at the initial time (only intravenous), and at 0.25, 0.5, 1, 2, 4, 6, 8 and 24 h by jugular venipuncture blooding method. EDTA-K2 was selected as anticoagulant. Blood samples were centrifuged within one hour at 6000 rpm for 8 minutes (placed on wet ice before centrifugation). The supernatant was stored at −20° C. for LC-MS/MS analysis.\nThe computer program Microsoft Office Excel 2007 (Microsoft, USA) was used to process data and graphics. The pharmacokinetic parameters were calculated by WinNolin 6.4 software."}, "[3]": {"conditions": "iv, 1 mg/kg, male SD rats, intravenous 1 mg/kg, Average"}, "[4]": {"conditions": "iv, 1 mg/kg, male SD rats, intravenous 1 mg/kg, individual rats 501/502/503 (c1/c2/c3)"}, "[5]": {"conditions": "iv, 5 mg/kg, male SD rats, 5 mg/kg (intravenous), Average"}, "[6]": {"conditions": "iv, 5 mg/kg, male SD rats, 5 mg/kg (intravenous), individual rats 101/102/103 (c1/c2/c3)"}, "[7]": {"conditions": "po, 10 mg/kg, male SD rats, oral 10 mg/kg, Average (Table 9)"}, "[8]": {"conditions": "po, 10 mg/kg, male SD rats, oral 10 mg/kg, individual rats 201/202/203 (c1/c2/c3)"}}, "note": "Where two headings read alike, the source gives them in different places."}
{"smiles": "CCc1nc2ccccn2c1C(=O)c1cc(Br)c(O)c(C#N)c1", "note": "[Form 1, 3-bromo-5-[(2-ethylimidazo[1,2-a]pyridin-3-yl)carbonyl]-2-hydroxybenzonitrile]", "values": [{"measurement": "DVS (80% RH)", "setting": "[1]; 25° C., 80% RH", "value": 5.32, "unit": "%"}, {"measurement": "DVS (85% RH)", "setting": "[1]; 25° C., 85% RH", "value": 5.68, "unit": "%"}, {"measurement": "Moisture absorbed (DVS)", "setting": "[1]; relative humidity cycled from 0% RH to 5% RH", "value": "about 3.4 % by weight"}, {"measurement": "Exposure at 5 mg/kg relative to 1 mg/kg", "setting": "[2]; SD rats, intravenous administration, 5 mg/kg versus 1 mg/kg", "value": "about 5 times"}, {"measurement": "Exposure and bioavailability (words, comparison)", "setting": "[2]; SD rats, oral administration 10 mg/kg, 10 mg/kg", "value": "sufficiently high bioavailability"}, {"measurement": "Cl—F—pred", "setting": "[2]; male SD rats, oral 10 mg/kg, Average (Table 9)", "value": 2.17, "unit": "mL/min/kg"}, {"measurement": "F", "setting": "[2]; male SD rats, oral 10 mg/kg, calculated by intravenous administration of 1 mg/kg, Average (Table 9)", "value": 43.54, "unit": "%"}, {"measurement": "AUC(0-t)", "setting": "[2]; [3]", "value": 17400, "unit": "ng·h/mL"}, {"measurement": "Cmax", "setting": "[2]; [3]", "value": 9580, "unit": "ng/mL"}, {"measurement": "MRT last", "setting": "[2]; [3]", "value": 3.65, "unit": "h"}, {"measurement": "AUC(0-inf)", "setting": "[2]; [3]", "value": 17400, "unit": "ng·h/mL"}, {"measurement": "clearance", "setting": "[2]; [3]", "value": 1, "unit": "mL/min/kg"}, {"measurement": "half-life", "setting": "[2]; [3]", "value": 2.9, "unit": "h"}, {"measurement": "Vd", "setting": "[2]; [3]", "value": 0.24, "unit": "L/kg"}, {"measurement": "AUC(0-t)", "setting": "[2]; [4]", "value": 18500, "unit": "ng·h/mL"}, {"measurement": "Cmax", "setting": "[2]; [4]", "value": 7120, "unit": "ng/mL"}, {"measurement": "MRT last", "setting": "[2]; [4]", "value": 3.99, "unit": "h"}, {"measurement": "AUC(0-inf)", "setting": "[2]; [4]", "value": 18500, "unit": "ng·h/mL"}, {"measurement": "clearance", "setting": "[2]; [4]", "value": 0.833, "unit": "mL/min/kg"}, {"measurement": "half-life", "setting": "[2]; [4]", "value": 3.2, "unit": "h"}, {"measurement": "Vd", "setting": "[2]; [4]", "value": 0.25, "unit": "L/kg"}, {"measurement": "AUC(0-t)", "setting": "[2]; [5]", "value": 80200, "unit": "ng·h/mL"}, {"measurement": "Cmax", "setting": "[2]; [5]", "value": 51400, "unit": "ng/mL"}, {"measurement": "MRT last", "setting": "[2]; [5]", "value": 3.44, "unit": "h"}, {"measurement": "AUC(0-inf)", "setting": "[2]; [5]", "value": 80500, "unit": "ng·h/mL"}, {"measurement": "clearance", "setting": "[2]; [5]", "value": 1, "unit": "mL/min/kg"}, {"measurement": "half-life", "setting": "[2]; [5]", "value": 3.08, "unit": "h"}, {"measurement": "Vd", "setting": "[2]; [5]", "value": 0.28, "unit": "L/kg"}, {"measurement": "AUC(0-t)", "setting": "[2]; [6]", "value": 90800, "unit": "ng·h/mL"}, {"measurement": "Cmax", "setting": "[2]; [6]", "value": 55700, "unit": "ng/mL"}, {"measurement": "MRT last", "setting": "[2]; [6]", "value": 3.65, "unit": "h"}, {"measurement": "AUC(0-inf)", "setting": "[2]; [6]", "value": 91100, "unit": "ng·h/mL"}, {"measurement": "clearance", "setting": "[2]; [6]", "value": 0.833, "unit": "mL/min/kg"}, {"measurement": "half-life", "setting": "[2]; [6]", "value": 3.12, "unit": "h"}, {"measurement": "Vd", "setting": "[2]; [6]", "value": 0.25, "unit": "L/kg"}, {"measurement": "AUC(0-t)", "setting": "[2]; [7]", "value": 75600, "unit": "ng·h/mL"}, {"measurement": "Cmax", "setting": "[2]; [7]", "value": 6480, "unit": "ng/mL"}, {"measurement": "MRT last", "setting": "[2]; [7]", "value": 6.51, "unit": "h"}, {"measurement": "AUC(0-inf)", "setting": "[2]; [7]", "value": 76200, "unit": "ng·h/mL"}, {"measurement": "half-life", "setting": "[2]; [7]", "value": 3.16, "unit": "h"}, {"measurement": "Vd/F", "setting": "[2]; [7]", "value": 0.61, "unit": "L/kg"}, {"measurement": "AUC(0-t)", "setting": "[2]; [8]", "value": 71500, "unit": "ng·h/mL"}, {"measurement": "Cmax", "setting": "[2]; [8]", "value": 6030, "unit": "ng/mL"}, {"measurement": "MRT last", "setting": "[2]; [8]", "value": 6.64, "unit": "h"}, {"measurement": "AUC(0-inf)", "setting": "[2]; [8]", "value": 72100, "unit": "ng·h/mL"}, {"measurement": "half-life", "setting": "[2]; [8]", "value": 3.15, "unit": "h"}, {"measurement": "Vd/F", "setting": "[2]; [8]", "value": 0.63, "unit": "L/kg"}]}
